Test results reported in US20110021619A1, “EXTERNAL PREPARATION FOR SKIN CONTAINING FLAVANONE DERIVATIVE” (priority 2006, published 2011).

How the values were obtained:
[1] = test system: Normal human epidermal keratinocytes; experiment: Cell proliferation effect of farrerol on keratinocytes (direct evaluation, cell count); assay type: cell-based; settings: FIG. 7
Procedure: 3) After 24 hours, 48 hours, and 72 hours from the sample addition, the cells were dispersed with 0.05% Trypsin/EDTA and the number thereof was then counted by a blood cell counter. By the way, in Experiment 1, the evaluation for WST-8 was used as an indicator of the number of cells. Since such a method is provided for indirect evaluation of the number of cells by acting on […] in mitochondria, the present study directly count the number of cells.

[2] = test system: Normal human fibroblasts; experiment: Toxicity of farrerol on fibroblasts, MTT assay (WST-8); assay type: cell-based; settings: 24, 48 and 72 hours after addition, any of the concentrations considered
Procedure: 1. Fibroblasts grown to 80% confluency were dispersed with 0.05% Trypsin/EDTA. The dispersant was seeded on 96 wells/plate at a concentration of 3×10^3 cells/well. 2. […] 3. […] 4. Absorbance was measured at a measurement wavelength of 450 nm and a reference wavelength of 650 nm.

[3] = test system: Normal human fibroblasts; experiment: Screening with wound model (punched collagen gel), Example 11; assay type: cell-based
Procedure: The fractions containing the single ingredients obtained as described above are provided as test substances and the effect of each test substance to construct collagen is then evaluated to screen the substance with a wound-healing effect. The specific procedures will be described later.
Using a “wound model” provided with a defect area formed by punching a collagen gel containing animal fibroblasts, the degree of filling or reduction of the defect area in the presence of a test substance will be observed. The procedures are as follows.
1) Normal human fibroblasts grown to 80% confluency in preculture were dispersed with 0.05% Trypsin/EDTA. The fibroblasts were then seeded on a plate at a cell density of 3×10^5 cells/25 cm^2 (1×10^4 cells/cm^2).
3) A collagen gel was prepared by adding a collagen medium solution to the obtained culture in a manner similar to Example 3. The fibroblasts in the collagen gel were cultured using the medium used in (2). The concentration of the test substance in the medium corresponded to the concentration of the medium of (2).
4) After culturing for 1 week, the size of a collagen gel was reduced from one at the time of being prepared by the addition of the collagen medium solution to a size of about ⅕ to 1/10. Subsequently, the center portion of the collagen gel was punched out in a donut form by a disposable biopsy punch with a diameter of 3 mm. As a result, a “wound model” was prepared.
5) A 6-well plate was prepared and 5 μl of the collagen solution was then dropped on the center portion of the well. Subsequently, the collagen gel of the wound model was mounted thereon and incubated at 37° C. for 15 minutes, allowing the collagen gel to be attached on the bottom of the well.
6) Subsequently, 3 ml of the same medium as that of (2) was added to each of the wells and the fibroblasts in the above-mentioned collagen gel was then cultured for 7 days. During the culture, the process of closing up the wound area of the collagen gel was visually observed.

[4] = test system: Normal human fibroblasts; experiment: Model of defective dermal tissue with wound (punched collagen gel), Example 6; assay type: cell-based; settings: FIG. 4
Procedure: The procedures will be described below. The results are represented in FIG. 4.
1) Normal human fibroblasts grown to 80% confluency were dispersed with 0.05% Trypsin/EDTA. The fibroblasts were seeded at a cell density of 3×10^5 cells/25 cm^2.
3) A collagen gel was prepared by adding a collagen medium solution to the culture obtained by culturing under each of the conditions in a manner similar to Example 2. The prepared collagen gel was then suspension-cultured for 1 week in the same medium as that of the culture condition of (2).
4) When the size of a collagen gel was reduced from one at the time of being prepared by the addition of the collagen medium solution to a size of about ⅕ to 1/10, the center portion of the gel was punched out in a donut form by a disposable biopsy punch with a diameter of 3 mm. As a result, a “wound model” was prepared.
5) A 6-well plate was prepared and 5 μl of collagen was then dropped on the center portion of the well. Subsequently, the collagen gel of the wound model was mounted thereon and incubated at 37° C. for 15 minutes.
6) When the dropped collagen was solidified and the gel was attached to the bottom of the well, 3 ml of the medium with the same condition as that of (3) was added, followed by culturing as a “model of defective dermal tissue with wound”. Subsequently, the process of closing up the wound area of the collagen gel was visually observed.

[5] = test system: NHDF; experiment: Building of collagen fiber bundle in collagen gel with heparin, SEM observation; assay type: cell-based, human; settings: 1% heparin at final, 5 days incubation, FIG. 3
Procedure: A collagen solution was prepared by mixture of 0.5% type-I collagen: 5×DMEM: 200 mM HEPES: 2.2% NaHCO3: 0.1 N NaOH: FBS: water at a ratio of 4:4:2:2:1:2:3 (performed while cooling).
A lower-layer collagen solution was prepared by mixing collagen solution with water at a ratio of 9 to 1.
The lower-layer collagen solution was dispensed into the respective wells of a 48-well plate in a volume of 100 μl/well.
The collagen solution was mixed with the cell suspension at a ratio of 9 to 1 (volume) and then dispensed into the respective wells in a volume of 300 μl/well.
The addition of 1.8% Heparin/10% FBS-DMEM was performed in a volume of 500 μl/well (1% Heparin/well at final).
Incubation was carried out in the CO2 incubator (5 days).
A sample for SEM observation was obtained.

[6] = test system: epidermal keratinocytes and fibroblasts; experiment: Influence on fibroblasts through epidermal keratinocytes, amount of procollagen produced (PIP EIA); assay type: cell-based, human
Procedure: The method is based on one described in Eming SA et al., Hum. Gene. Ther., 9 (4), 529-39 (1998).
DAY 1: The cells are seeded on a 24-well plate at a cell density of 3×10^4 cells/well. […] DAY 7: The supernatant of the culture is collected.
DAY 3: The cells are seeded on a 24-well plate at a cell density of 2.5×10^4 cells/well. DAY 7: The plate is washed with PBS and the culture supernatant (900 μl) of the epidermal keratinocytes is then added, followed by culturing for 48 hours. DAY 9: The plate is washed with PBS and serum-free DMEM and the medium is then replaced with 500 μl of serum-free DMEM, followed by culturing for 2 hours. The supernatant of the culture is collected and the amount of procollagen in the centrifuged supernatant (15000 rpm, 5 sec.) was then measured depending on the method described below. […]
4) A standard curve was formed by plotting absorbance values at a wavelength of […] while the absorbance of the medium was set to zero as a reference. Then, the PIP concentration was read out from the corresponding absorbance of the test substance.

[7] = test system: Normal human epidermal keratinocytes
Procedure: 1) Normal human epidermal keratinocytes grown to 80% confluency were dispersed with 0.05% Trypsin/EDTA. The dispersant was seeded on 96 wells/plate at a concentration of 3×10^3 cells/well and 6×10^3 cells/well.
4) Absorbance (OD value) was measured at a measurement wavelength of 450 nm and a reference wavelength of 650 nm.

[8] = test system: Normal human fibroblasts; experiment: Wound-healing model (punched three-dimensional collagen gel), behavior of fibroblasts; assay type: cell-based; settings: 10^−6 ml/ml-DMEM farrerol, after 24 hours, vs farrerol-free group
Source text: 1) The culture of fibroblasts obtained by Protocol 4 of Example 1 and the collagen medium solution were mixed together at a ratio of 1:9 (volume) and then suspension-cultured in a 10%-FBS medium for 1 week.
2) When the size of a collagen gel was reduced from one at the time of being prepared by the addition of the collagen medium solution to a size of about ⅕ to 1/10, the center portion of the gel was punched out by a disposable biopsy punch with a diameter of 3 mm.
3) A 6-well plate was prepared and 15 μl of the collagen solution was then dropped on the center of the well. Subsequently, the punched three-dimensional collagen gel was mounted thereon and incubated for 10 minutes (37° C., 5% CO2).
4) When the dropped collagen was solidified and the three-dimensional collagen gel was attached to the bottom of the well, 10% FBS-DMEM, 0.1% heparin/10% FBS-DMEM, and 1.0% heparin/10% FBS-DMEM were added in a volume of 3 ml/well.

## Cc1c(O)c(C)c2c(c1O)C(=O)CC(c1ccc(O)cc1)O2 (centres unmarked) [farrerol]
[1]
  cell shape: no change in cell shape
[2]
  cytotoxicity: Significant cytotoxicity could not be confirmed
[3]; compared with the rest of the seven single-ingredient fractions of Hypericum erectum extract
  degree of filling or reduction of the defect area: highest degree of filling or reduction of the defect area
[3]; effective concentration read from defect area reduction
  concentration exerting a wound-healing promoting effect: at least 10^−6 M
[3]; final concentration of farrerol 10^−5 M, FIG. 9
  reduction of the punch hole (defect area): distinctly promoted
[3]; final concentration of farrerol 10^−6 M, FIG. 9
  reduction of the punch hole (defect area): distinctly promoted
[3]; final concentration of farrerol 10^−7 M, FIG. 9
  promotion of reduction of the punch hole (defect area): obscure
[4]; final concentration of farrerol 10^−5 M
  reduction of punched hole size: promoted clearly
[4]; final concentration of farrerol 10^−6 M
  reduction of punched hole size: promoted clearly
[4]; final concentration of farrerol 10^−7 M
  promotion of reduction of punched hole size: unclear
[5]
  building of a collagen fiber bundle: prevents an inhibitory effect of heparin on the building of a collagen fiber bundle
[6]; another system: farrerol added at the time of culturing fibroblasts, then keratinocyte culture supernatant added
  amount of procollagen produced: did not show a large change in amount of procollagen produced
[6]; fibroblasts cultured 48 hours with supernatant of keratinocytes treated with farrerol 10^−6, 10^−7, 10^−8 M, FIG. 8
  amount of procollagen produced: increased significantly depending on the concentration of farrerol
[7]; dependence on concentration of farrerol, FIG. 5
  OD value (450 nm): increased depending on the concentration of farrerol
[7]; doubled number of seeded cells, 6×10^3 cells/well
  OD value, reproducibility: almost the similar result could be obtained
[8]; 0.1% heparin/10% FBS-DMEM and 1.0% heparin/10% FBS-DMEM
  movement of fibroblasts from the wound area: no difference in cell movement
[8]; unsupplemented 10% FBS-DMEM, FIG. 2
  movement of fibroblasts from the wound area: longer movement distance of fibroblasts and a more active cellular movement
